According to US20060193844A1, “Methods for enzyme inhibition” (Proteolix, Inc., priority 2005, published 2006):

Experiments:
[1] = tested on: HT-29 cell line; assay: Human xenograft model, tumor volume; type: in vivo; conditions: dose equivalent to the MTD for this strain of mouse, clinical schedule; FIG. 4
Description: In a human xenograft model using an HT-29 cell line, proteasome inhibitors were administered using the indicated regimens.

[2] = twice weekly for two weeks (days 1, 4, 8 and 11) followed by a ten-day rest period; cited from earlier work
[3] = female rats; daily administration of doses that result in 80% inhibition of the proteasome; cited from earlier work
[4] = monkeys, cited from earlier work

## CC(C)C[C@H](NC(=O)[C@H](Cc1ccccc1)NC(=O)c1cnccn1)B(O)O [bortezomib]
[1]
  anti-tumor response: unable to induce an anti-tumor response
[2]
  maximum tolerated dose (MTD): 1.3 mg/m^2/dose
[3]
  lethality: 67%
[4]
  highest daily dose without severe toxicity, fold less than the MTD on the clinical dosing schedule: 20 fold
[4]; daily administered
  highest dose without severe toxicity: 0.5 mg/m^2
